The values below come from patent publication US9512114B2, “Substituted aminopyrimidine compounds and methods of use” (Calitor Sciences, LLC, priority 2013, dated 2016).

One data set deals with PI3K (p110α/p85α) (h) (Homo sapiens (Human), UniProt P42336). Nature of the data set: PI3K (p110α/p85α) (h) non-radioactive HTRF kinase assay. The format is biochemical. As to conditions: performed at Millipore UK Ltd. As to the method:
(§1) The above assay procedure can be used to determine the IC50 for inhibition and/or the inhibition constant, Ki.
PI3K (p110α/p85α) (h) [Non-Radioactive Assay]
(§2) PI3K (p110α/p85α) (h) is incubated in assay buffer containing 10 μM phosphatidylinositol 4,5-bisphosphate and MgATP (concentration as required). The reaction is initiated by the addition of the ATP solution. After incubation for 30 minutes at room temperature, the reaction is stopped by the addition of stop solution containing EDTA and biotinylated phosphatidylinositol-3,4,5-trisphosphate. Finally, detection buffer is added, which contains europium-labelled anti-GST monoclonal antibody, GST-tagged GRP1 PH domain and streptavidin allophycocyanin. The plate is then read in timeresolved fluorescence mode and the homogenous time-resolved fluorescence (HTRF) signal is determined according to the formula HTRF=10000×(Em665 nm/Em620 nm).
(§3) The kinase assays described herein were performed at Millipore UK Ltd, Dundee Technology Park, Dundee DD2 1SW, UK.

The target of a further data set is PI3K (p120γ) (h) (Homo sapiens (Human), UniProt P48736). Nature of the data set: PI3K (p120γ) (h) non-radioactive HTRF kinase assay. It counts as biochemical. The following applies: performed at Millipore UK Ltd. As to the method: as §1
PI3K (p120γ) (h), sequence (P48736 whole entry): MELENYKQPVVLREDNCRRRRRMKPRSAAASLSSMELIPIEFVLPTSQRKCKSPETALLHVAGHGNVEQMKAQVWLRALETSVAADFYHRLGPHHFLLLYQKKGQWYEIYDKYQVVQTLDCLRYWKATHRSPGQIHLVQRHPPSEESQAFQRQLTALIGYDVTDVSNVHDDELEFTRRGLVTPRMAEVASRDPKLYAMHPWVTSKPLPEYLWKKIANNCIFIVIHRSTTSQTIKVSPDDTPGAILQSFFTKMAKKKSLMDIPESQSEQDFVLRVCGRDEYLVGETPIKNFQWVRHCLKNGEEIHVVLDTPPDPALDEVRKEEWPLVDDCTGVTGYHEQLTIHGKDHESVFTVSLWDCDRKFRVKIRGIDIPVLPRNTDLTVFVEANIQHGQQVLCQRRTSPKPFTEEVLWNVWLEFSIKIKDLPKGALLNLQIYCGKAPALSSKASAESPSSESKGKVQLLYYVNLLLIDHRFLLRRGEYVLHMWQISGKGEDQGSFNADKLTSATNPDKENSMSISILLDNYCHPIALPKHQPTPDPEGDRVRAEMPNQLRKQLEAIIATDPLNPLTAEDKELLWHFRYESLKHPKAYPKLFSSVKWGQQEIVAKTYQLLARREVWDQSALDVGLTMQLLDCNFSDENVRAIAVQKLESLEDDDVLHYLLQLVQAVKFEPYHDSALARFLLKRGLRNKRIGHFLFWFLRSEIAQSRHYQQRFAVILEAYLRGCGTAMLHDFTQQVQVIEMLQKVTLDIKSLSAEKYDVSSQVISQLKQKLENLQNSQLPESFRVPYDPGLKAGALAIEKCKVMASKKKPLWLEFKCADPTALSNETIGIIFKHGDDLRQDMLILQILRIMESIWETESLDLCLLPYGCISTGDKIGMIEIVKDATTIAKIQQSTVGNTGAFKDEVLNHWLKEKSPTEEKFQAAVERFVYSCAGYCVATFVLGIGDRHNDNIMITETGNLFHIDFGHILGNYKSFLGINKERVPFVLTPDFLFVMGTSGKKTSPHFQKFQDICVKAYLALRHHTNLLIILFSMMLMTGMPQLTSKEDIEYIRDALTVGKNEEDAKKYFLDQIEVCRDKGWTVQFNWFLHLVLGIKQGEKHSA
PI3K (p120γ) (h) [Non-Radioactive Assay]
as §2, with “(p120γ)” for “(p110α/p85α)”, “phosphatidylinositol-4, 5-bisphosphate” for “phosphatidylinositol 4,5-bisphosphate”, “MgATP mix.” for “ATP solution.”, “streptavidin-allophycocyanin.” for “streptavidin allophycocyanin.”
as §3
(In general: TR-FRET usually uses a lanthanide donor and a delayed reading to cut background.)

A short description of data set [1]: Compound stability in rat liver microsomes. It counts as in vitro ADME. As to conditions: pH 7.4; for CLint scaled at 5 μM: liver microsomes, in vivo CLint extrapolated from rat liver microsome incubation; for half-life at 5 μM: rat liver microsomes 0.5 mg protein/mL, compound 5 μM, NADPH 1.0 mM, 37° C., read-out: Rat T1/2. As to the method:
(§4) The LC/MS/MS system used in the analysis consists of an Agilent 1200 Series vacuum degasser, binary pump, well-plate autosampler, thermostatted column compartment, the Agilent G6430 Triple Quadrupole Mass Spectrometer with an electrosprayionization (ESI) source. Quantitative analysis was carried out using MRM mode. The parameters for MRM transitions are in the Table A.
(§5) An Agilent XDB-C18, 2.1×30 mm, […] column was used for the analysis. 5 μL of the samples were injected. Analysis condition: The mobile phase was 0.1% formic acid in water (A) and 0.1% formic acid in methanol (B). The flow rate was 0.4 mL/min. And the gradient of Mobile phase was in the Table B.
(§6) Alternatively, an Agilent 6330 series LC/MS/MS spectrometer equipped with G1312A binary pumps, a G1367A autosampler and a G1314C UV detector were used in the analysis. An ESI source was used on the LC/MS/MS spectrometer. The analysis was done in positive ion mode as appropriate and the MRM transition for each analyte was optimized using standard solution. A Capcell MP-C18 100×4.6 mm I.D., […] column (Phenomenex, Torrance, Calif., USA) was used during the analysis. The mobile phase was 5 mM ammonia acetate, 0.1% MeOH in water (A): 5 mM ammonia acetate, 0.1% MeOH in acetonitrile (B) (70:30, v/v). The flow rate was 0.6 mL/min. Column was maintained at ambient temperature. 20 μL of the samples were injected.
(§7) Human or rat liver microsomes incubations were conducted in duplicate in polypropylene tubes. The typical incubation mixtures consisted of human or rat liver microsomes (0.5 mg protein/mL), compounds of interest (5 μM) and NADPH (1.0 mM) in a total volume of 200 μL potassium phosphate buffer (PBS, 100 mM, pH 7.4). Compounds were dissolved in DMSO and diluted with PBS such that the final concentration of DMSO was 0.05%. The enzymatic reactions were commenced with the addition of protein after a 3-min preincubation and incubated in a water bath open to the air at 37° C. Reactions were terminated at various time points (0, 5, 10, 15, 30, 60 min) by adding equal volume of ice-cold acetonitrile. The samples were stored at −80° C. until LC/MS/MS assays.
(§8) The concentrations of compounds in the incubation mixtures of human or rat liver microsomes were determined by a LC/MS/MS method. The ranges of the linearity in the concentration range were determined for each tested compounds.
(§9) A parallel incubation was performed using denatured microsomes as the negative control, and reactions were terminated at various time points (0, 15, 60 min) after incubation at 37° C.
(§10) Dextromethorphan (70 μM) was selected as the positive control, and reactions were terminated at various time points (0, 5, 10, 15, 30, 60 min) after incubation at 37° C. Both positive and negative control samples were included in each assay to ensure the integrity of the microsomal incubation system.
(§11) The concentrations of compounds in human or rat liver microsome incubations were plotted as a percentage of the relevant zero time point control for each reaction. The in vivo CLint were extrapolated (ref.: Naritomi, Y.; Terashita, S.; Kimura, S.; Suzuki, A.; Kagayama, A.; and Sugiyama, Y.; Prediction of human hepatic clearance from in vivo animal experiments and in vitro metabolic studies with liver microsomes from animals and humans. Drug Metab. Dispos., 2001, 29: 1316-1324).

For a further data set, the target named is PI3K (p110δ/p85α) (h) (Homo sapiens (Human), UniProt O00329). Nature of the data set: PI3K (p110δ/p85α) (h) non-radioactive HTRF kinase assay. The format is biochemical. As to conditions: performed at Millipore UK Ltd. As to the method:
as §1
PI3K (p110δ/p85α) (h) [Non-Radioactive Assay]
as §2, with “(p110δ/p85α)” for “(p110α/p85α)”, “phosphatidylinositol-4, 5-bisphosphate” for “phosphatidylinositol 4,5-bisphosphate”, “MgATP mix.” for “ATP solution.”, “streptavidin-allophycocyanin.” for “streptavidin allophycocyanin.”
as §3

Data set [2] can be described thus: Compound stability in human liver microsomes. It counts as in vitro ADME. As to conditions: pH 7.4; for CLint scaled at 5 μM: liver microsomes, in vivo CLint extrapolated from human liver microsome incubation; for half-life at 5 μM: human liver microsomes 0.5 mg protein/mL, compound 5 μM, NADPH 1.0 mM, 37° C., read-out: Human T1/2. As to the method: as §4, §5, §6, §7, §8, §9, §10, §11

Data set [3] in a line: Pharmacokinetic profiles in rats. It counts as in vivo, rat. The following applies: for Cl/F / AUC(0-t) / half-life / Vd: iv dosing 1 mg/kg; for F: oral vs iv (iv 1 mg/kg; p.o. generally 5 or 10 mg/kg); for AUC(0-t) / half-life / Vd: rat, plasma; for Vd: read-out: Vss. As to the method:
The compounds disclosed herein are assessed in pharmacokinetic studies in mice, rats, dogs or monkeys. The compounds are administered as a water solution, 2% HPMC+1% TWEEN®80 in water solution, 5% DMSO+5% solutol in saline, 4% MC suspension or capsule. For the intravenous administration, the animals are generally given at 1 or 2 mg/kg dose. For the oral (p.o.) dosing, mice and rats are generally given 5 or 10 mg/kg dose, and dogs and monkeys are generally given 10 mg/kg dose. The blood samples (0.3 mL) are drawn at 0.25, 0.5, 1.0, 2.0, 3.0, 4.0, 6.0, 8.0, 12 and 24 h time points or 0.083, 0.25, 0.5, 1.0, 2.0, 4.0, 6.0, 8.0 and 24 h time points and centrifuged at 3,000 or 4000 rpm for 2 to 10 min. The plasma solutions are collected, stored at −20° C. or −70° C. until analyzed by LC/MS/MS as described above.

The IC50 is the concentration at which inhibition is half-maximal. What is called CLint scaled is a measure of how fast metabolising enzymes remove a compound, apart from limits set by blood flow. One may read the AUC(0-t) as the area under the concentration-time curve up to a stated or last time point. A lower AUC(0-t) goes with low exposure.

PI3K (p110δ/p85α) (h), sequence (O00329 whole entry): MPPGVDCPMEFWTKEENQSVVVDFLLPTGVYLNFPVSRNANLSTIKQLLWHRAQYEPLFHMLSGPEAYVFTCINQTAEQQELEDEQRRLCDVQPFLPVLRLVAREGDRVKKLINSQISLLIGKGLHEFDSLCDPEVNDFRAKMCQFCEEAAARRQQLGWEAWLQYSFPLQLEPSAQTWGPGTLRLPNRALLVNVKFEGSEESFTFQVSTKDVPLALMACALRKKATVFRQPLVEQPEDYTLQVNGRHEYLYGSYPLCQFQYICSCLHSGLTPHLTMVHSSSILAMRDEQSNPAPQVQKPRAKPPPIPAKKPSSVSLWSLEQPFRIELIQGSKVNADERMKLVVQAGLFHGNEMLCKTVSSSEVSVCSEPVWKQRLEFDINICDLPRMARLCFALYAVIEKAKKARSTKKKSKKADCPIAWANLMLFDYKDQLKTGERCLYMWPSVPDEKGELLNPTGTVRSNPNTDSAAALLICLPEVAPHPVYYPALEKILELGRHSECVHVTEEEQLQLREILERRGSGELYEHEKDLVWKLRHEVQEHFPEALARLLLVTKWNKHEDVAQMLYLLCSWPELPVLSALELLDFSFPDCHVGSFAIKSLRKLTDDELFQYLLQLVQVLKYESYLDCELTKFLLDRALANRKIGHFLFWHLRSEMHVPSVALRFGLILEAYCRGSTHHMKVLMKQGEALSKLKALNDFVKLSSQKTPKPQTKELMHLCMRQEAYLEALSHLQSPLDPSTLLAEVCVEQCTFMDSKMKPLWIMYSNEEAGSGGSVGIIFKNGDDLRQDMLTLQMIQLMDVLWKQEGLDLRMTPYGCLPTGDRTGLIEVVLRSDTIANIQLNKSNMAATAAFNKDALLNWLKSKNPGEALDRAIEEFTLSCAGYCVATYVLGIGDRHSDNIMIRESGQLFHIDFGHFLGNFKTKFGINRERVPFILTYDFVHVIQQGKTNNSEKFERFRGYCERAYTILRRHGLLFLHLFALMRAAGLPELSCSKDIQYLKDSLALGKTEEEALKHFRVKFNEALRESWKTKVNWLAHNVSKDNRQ
PI3K (p110δ/p85α) (h), sequence (P27986 whole entry partner): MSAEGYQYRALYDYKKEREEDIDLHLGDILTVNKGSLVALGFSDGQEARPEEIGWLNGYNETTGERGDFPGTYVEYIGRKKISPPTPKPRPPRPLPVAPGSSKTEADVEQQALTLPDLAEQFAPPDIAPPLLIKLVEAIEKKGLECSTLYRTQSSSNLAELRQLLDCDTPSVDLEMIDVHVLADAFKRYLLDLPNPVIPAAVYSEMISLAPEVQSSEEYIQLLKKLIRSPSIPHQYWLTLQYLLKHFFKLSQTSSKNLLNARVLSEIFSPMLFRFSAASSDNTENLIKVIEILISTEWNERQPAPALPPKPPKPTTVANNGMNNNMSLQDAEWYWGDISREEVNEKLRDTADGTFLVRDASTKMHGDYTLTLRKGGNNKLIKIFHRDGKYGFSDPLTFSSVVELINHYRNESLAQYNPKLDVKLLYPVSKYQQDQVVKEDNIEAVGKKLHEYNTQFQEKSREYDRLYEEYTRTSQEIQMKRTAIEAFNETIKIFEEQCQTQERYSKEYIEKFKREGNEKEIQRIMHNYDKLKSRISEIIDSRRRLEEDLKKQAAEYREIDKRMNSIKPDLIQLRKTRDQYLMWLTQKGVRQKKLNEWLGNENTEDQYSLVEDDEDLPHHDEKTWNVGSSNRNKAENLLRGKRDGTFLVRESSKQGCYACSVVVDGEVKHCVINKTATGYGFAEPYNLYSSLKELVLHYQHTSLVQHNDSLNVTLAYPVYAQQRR
PI3K (p110α/p85α) (h), sequence (P42336 whole entry): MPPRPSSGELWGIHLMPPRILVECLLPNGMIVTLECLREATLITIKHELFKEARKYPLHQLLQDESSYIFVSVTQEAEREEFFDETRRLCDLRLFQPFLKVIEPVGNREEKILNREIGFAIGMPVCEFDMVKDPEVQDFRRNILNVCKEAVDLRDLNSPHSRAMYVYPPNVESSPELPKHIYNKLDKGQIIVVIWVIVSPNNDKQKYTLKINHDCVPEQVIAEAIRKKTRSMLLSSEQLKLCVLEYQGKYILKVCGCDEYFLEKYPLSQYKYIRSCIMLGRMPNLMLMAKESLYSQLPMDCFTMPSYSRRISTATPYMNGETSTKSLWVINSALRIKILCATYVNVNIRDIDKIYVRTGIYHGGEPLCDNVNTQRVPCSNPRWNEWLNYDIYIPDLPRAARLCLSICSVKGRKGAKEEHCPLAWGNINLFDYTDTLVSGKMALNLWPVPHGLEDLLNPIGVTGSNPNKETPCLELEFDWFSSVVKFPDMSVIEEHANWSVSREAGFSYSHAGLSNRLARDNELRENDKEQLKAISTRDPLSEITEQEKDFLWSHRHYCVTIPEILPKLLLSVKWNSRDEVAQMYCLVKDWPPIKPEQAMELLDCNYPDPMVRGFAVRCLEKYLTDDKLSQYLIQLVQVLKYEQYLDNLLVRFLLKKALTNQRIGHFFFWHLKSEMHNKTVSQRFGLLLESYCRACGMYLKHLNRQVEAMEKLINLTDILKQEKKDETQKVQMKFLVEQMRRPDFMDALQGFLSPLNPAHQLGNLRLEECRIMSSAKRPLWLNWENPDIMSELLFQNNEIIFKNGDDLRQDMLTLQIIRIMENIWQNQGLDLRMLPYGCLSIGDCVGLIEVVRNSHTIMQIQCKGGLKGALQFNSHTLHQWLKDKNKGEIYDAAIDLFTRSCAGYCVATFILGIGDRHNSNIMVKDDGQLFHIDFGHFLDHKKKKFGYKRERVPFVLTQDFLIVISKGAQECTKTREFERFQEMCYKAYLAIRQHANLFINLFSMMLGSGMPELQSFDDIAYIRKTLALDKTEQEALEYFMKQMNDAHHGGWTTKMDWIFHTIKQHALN
PI3K (p110α/p85α) (h), sequence (P27986 whole entry partner): as the sequence (P27986 whole entry partner) above

With `Cc1nc(-c2c(N)ncnc2N[C@@H](C)c2cc3cccc(Cl)c3c(=O)n2C2CC2)no1` [Ex. 11, (S)-3-(1-((6-amino-5-(5-methyl-1,2,4-oxadiazol-3-yl)pyrimidin-4-yl)amino)ethyl)-8-chloro-2-cyclopropylisoquinolin-1(2H)-one], the concentration for half-maximal inhibition (IC50) on PI3K (p110α/p85α) (h) stood at 1480 nM; at PI3K (p120γ) (h) it was 375 nM; on PI3K (p110δ/p85α) (h), 13 nM. For the same compound, the CLint scaled at 5 μM was 317 mL/min/kg in data set [1] and 545 mL/min/kg in data set [2]. Moreover, the half-life at 5 μM in data set [1] was 7.83 min; in data set [2] it was 3.19 min.

Take `C[C@H](Nc1ncnc(N)c1-c1ncn(C)n1)c1cc2cccc(Cl)c2c(=O)n1C1CC1` [Ex. 16, (S)-3-(1-((6-amino-5-(1-methyl-1H-1,2,4-triazol-3-yl)pyrimidin-4-yl)amino)ethyl)-8-chloro-2-cyclopropylisoquinolin-1(2H)-one]: in data set [1], the CLint scaled at 5 μM was 173 mL/min/kg and the half-life at 5 μM turned out to be 14.3 min. In data set [3], this compound had a Cl/F of 89.3 mL/min/kg, an F of 11.44%, an AUC(0-t) of 186 ng·h/mL and a half-life of 36.6 min. The Vd in data set [3] is 2.94 L/kg. At PI3K (p110δ/p85α) (h), the half-inhibitory concentration (IC50) amounted to 190 nM. Further, in data set [2], the intrinsic metabolic clearance (CLint scaled) at 5 μM is 219 mL/min/kg and the half-life at 5 μM was determined as 7.92 min.

For `CC[C@H](Nc1ncnc(N)c1-c1noc(C)n1)c1cc2cccc(F)c2c(=O)n1-c1ccccc1` [Ex. 18, (S)-3-(1-((6-amino-5-(5-methyl-1,2,4-oxadiazol-3-yl)pyrimidin-4-yl)amino)propyl)-8-fluoro-2-phenylisoquinolin-1(2H)-one], in data set [1], the CLint scaled at 5 μM was 330 mL/min/kg and the half-life at 5 μM was 7.53 min. In addition, in data set [3], the Cl/F is 51.7 mL/min/kg, the F worked out at 38.15%, the AUC(0-t) amounted to 323 ng·h/mL and the half-life is 46.5 min. For the same compound, in data set [3], the Vd came to 1.66 L/kg. For the same compound, on PI3K (p110δ/p85α) (h), the half-maximal inhibitory concentration (IC50) was found to be 32 nM. Also, in data set [2], the intrinsic metabolic clearance (CLint scaled) at 5 μM was 226 mL/min/kg and the half-life at 5 μM is 7.7 min.

With `CCc1noc(-c2c(N)ncnc2N[C@@H](CC)c2cc3cccc(Cl)c3c(=O)n2C2CC2)n1` [Ex. 22, (S)-3-(1-((6-amino-5-(3-ethyl-1,2,4-oxadiazol-5-yl)pyrimidin-4-yl)amino)propyl)-8-chloro-2-cyclopropylisoquinolin-1(2H)-one], in data set [1], the CLint scaled at 5 μM is 259 mL/min/kg and the half-life at 5 μM was 9.58 min. In data set [3], this compound had a Cl/F of 99.8 mL/min/kg, an F of 16.23%, an area under the curve AUC(0-t) of 167 ng·h/mL and a half-life of 79.2 min. Also, in data set [3], the Vd amounted to 6.07 L/kg. Also, the half-maximal inhibitory concentration (IC50) at PI3K (p110δ/p85α) (h) came out at 3 nM. In addition, in data set [2], the CLint scaled at 5 μM was 138 mL/min/kg and the half-life at 5 μM was determined as 12.6 min.

As for `Cc1noc(-c2c(N)ncnc2N[C@@H](C)c2cc3cccc(Cl)c3c(=O)n2C2CC2)n1` [Ex. 24, (S)-3-(1-((6-amino-5-(3-methyl-1,2,4-oxadiazol-5-yl)pyrimidin-4-yl)amino)ethyl)-8-chloro-2-cyclopropylisoquinolin-1(2H)-one], on PI3K (p110α/p85α) (h), the IC50 came to 307 nM. The IC50 on PI3K (p120γ) (h) was 15 nM. In data set [1], the intrinsic clearance (CLint scaled) at 5 μM is 190 mL/min/kg and the half-life at 5 μM came to 13.1 min. In data set [3], this compound showed a Cl/F of 120 mL/min/kg, an F of 12.28%, an area under the curve AUC(0-t) of 139 ng·h/mL and a half-life of 45 min. In data set [3], the Vd was 5.46 L/kg. The IC50 on PI3K (p110δ/p85α) (h) stood at 3 nM. In addition, in data set [2], the CLint scaled at 5 μM was 114 mL/min/kg and the half-life at 5 μM was determined as 15.3 min.
